The source of these data is US7994190B2, “Modulators of glucocorticoid receptor, AP-1, and/or NF-κB activity and use thereof” (Bristol-Myers Squibb Company, priority 2006, dated 2011).

As usually defined, the EC50 is the concentration giving half of the maximal effect. One may read the Ki as the equilibrium dissociation constant of an inhibitor or competing ligand from its target.

The test system of test [1] is AP-1. The test can be described thus: Cellular Transrepressional Assay (AP-1 luciferase reporter in A549 cells). The conditions noted are these: A549 cell stably transfected with pAP-1-Luc, 10 ng/ml PMA, 7 hours; for AP-1 Max % inh (Cellular Transrepression Assay): maximum inhibition; for EC50: read-out: AP-1 EC50, nM (Cellular Transrepression Assay). Type of test: cell-based. Here is the method:
Cellular Transrepressional Assay
To measure the ability of test molecules to inhibit AP-1 induced transcriptional activity, an A549 cell was utilized which was stably transfected with a plasmid containing 7×AP-1 DNA binding sites (pAP-1-Luc plasmid, Stratagene Co. La Jolla, Calif.) followed by the gene for luciferase. Cells were activated with 10 ng/ml of […] (PMA) plus or minus test molecules for 7 hours. After 7 hours a luciferase reagent was added to measure luciferase enzymatic activity in the cell. After a 10 minute incubation of luciferase reagent with cells, luminescence was measured in a TopCount luminescence counter. Repression of AP-1 activity was calculated as the percentage decrease in the signal induced by PMA alone. Test molecules were analyzed in the concentration range from 0.1 nM to 40 μM. EC50s were determined by using standard curve fitting methods such as Excel fit (Microsoft Co.).
A general note: Reporter assays use an easily measured gene product as a stand-in for the process of interest.

In test [2] the target is T1, human glucocorticoid receptor (Homo sapiens, UniProt P04150).
T1 construct: purified human recombinant full-length glucocorticoid receptor (2 nM); purchased Invitrogen Part #2893
T1 sequence (P04150 1-777): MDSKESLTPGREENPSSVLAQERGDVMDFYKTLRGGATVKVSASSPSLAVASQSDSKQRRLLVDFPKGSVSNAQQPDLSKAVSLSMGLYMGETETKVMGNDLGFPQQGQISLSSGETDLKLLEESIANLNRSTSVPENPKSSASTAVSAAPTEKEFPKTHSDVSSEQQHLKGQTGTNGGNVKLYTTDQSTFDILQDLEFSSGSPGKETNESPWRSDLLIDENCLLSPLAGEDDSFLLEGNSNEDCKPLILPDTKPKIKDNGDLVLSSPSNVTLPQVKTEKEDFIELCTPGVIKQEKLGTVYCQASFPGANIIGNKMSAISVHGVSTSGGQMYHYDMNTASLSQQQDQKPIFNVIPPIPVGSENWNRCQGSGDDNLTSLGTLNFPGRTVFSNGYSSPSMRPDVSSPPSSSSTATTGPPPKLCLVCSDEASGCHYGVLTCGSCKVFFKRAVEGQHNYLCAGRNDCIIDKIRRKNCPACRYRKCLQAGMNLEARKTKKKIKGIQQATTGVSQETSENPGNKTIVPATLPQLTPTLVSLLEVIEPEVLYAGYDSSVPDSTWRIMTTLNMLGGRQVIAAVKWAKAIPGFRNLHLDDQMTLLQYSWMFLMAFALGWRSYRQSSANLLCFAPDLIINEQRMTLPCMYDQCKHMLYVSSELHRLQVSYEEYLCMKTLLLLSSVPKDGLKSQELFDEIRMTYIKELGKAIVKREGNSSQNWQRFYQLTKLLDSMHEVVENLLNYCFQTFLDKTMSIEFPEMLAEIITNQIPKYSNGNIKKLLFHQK
The test can be described thus: Glucocorticoid Receptor Binding Assay (fluorescence polarization competitor kit). The note with it: purified human recombinant full-length GR 2 nM, 1 nM Fluormone GS Red, 2 h room temperature. Here is the method: Glucocorticoid Receptor Binding Assay
In order to assess the affinity of test compounds for the human glucocorticoid receptor, a commercially available kit was used (Glucocorticoid Receptor Competitor Assay Kit, Invitrogen Part #2893). Briefly, purified human recombinant full-length glucocorticoid receptor (2 nM) was mixed with fluorescently labeled glucocorticoid (1 nM Fluormone GS Red) in the presence or absence of test compound. After two hour incubation at room temperature in the dark, the fluorescence polarization (FP) of the samples was measured. […] Test compounds were analyzed in the concentration range from 8.5E-05 μM to 5 μM.
On the technique in general: In fluorescence polarisation assays a small probe gives low polarisation when free and higher when bound to something large.

For `CC(C)(C(=O)Nc1nccs1)C(c1ccccc1)c1ccc2c(-c3ccc(F)cc3)ncn2c1` (stereo not shown) [Example 5, 3-(1-(4-Fluorophenyl)H-imidazo[1,5-a]pyridin-6-yl)-2,2-dimethyl-3-phenyl-N-(thiazol-2-yl)propanamide], in test [1], the “AP-1 Max % inh (Cellular Transrepression Assay)” value (“AP-1 Max % inh” for short) is 71.08% and the EC50 was determined as 34.1 nM.

For `CC(C)(C(=O)Nc1nncs1)C(c1ccccc1)c1ccc2c(-c3ccc(F)cc3)ncn2c1` (stereo not shown) [Example 14], in test [1], the “AP-1 Max % inh” value came out at 55.80% and the EC50 is 43.6 nM.

With `Cc1nnc2ccc(C(c3ccccc3)C(C)(C)C(=O)Nc3nccs3)cn12` (stereo not shown) [Example 25], the Ki in test [2] stood at 2360 nM.

On to `CC(C)(C(=O)Nc1nncs1)C(c1ccccc1)c1ccc2c(-c3ccc(F)c(Cl)c3)ncn2c1` (stereo not shown) [Example 21], for which, in test [2], the Ki is 46.6 nM.

On to `CC(C)(C(=O)Nc1nccs1)C(c1ccccc1)c1ccc2c(-c3cccc(C#N)c3)ncn2c1` (stereo not shown) [Example 7, 3-(1-(3-Cyanophenyl)H-imidazo[1,5-a]pyridin-6-yl)-2,2-dimethyl-3-phenyl-N-(thiazol-2-yl)propanamide], for which the inhibition constant (Ki) in test [2] turned out to be 17 nM.

With `Cc1cscc1-c1ncn2cc(C(c3ccccc3)C(C)(C)C(=O)Nc3nncs3)ccc12` (stereo not shown) [Example 23], the Ki in test [2] was 36 nM.

Turning to `CC(C)(C(=O)Nc1nccs1)C(c1ccccc1)c1ccn2cncc2c1` (stereo not shown) [Example 12], the Ki in test [2] turned out to be 17.7 nM.

As for `CC(C)(C(=O)Nc1nccs1)C(c1ccccc1)c1ccc2c(-c3ccc(C#N)cc3)ncn2c1` (stereo not shown) [Example 16], the Ki in test [2] was 26.2 nM.

Consider `CC(C)(C(=O)Nc1nncs1)C(c1ccccc1)c1ccc2cncn2c1` (stereo not shown) [Example 13], for which, in test [2], the Ki is 19.5 nM.

In the case of `CC(C)(C(=O)Nc1nccs1)C(c1ccccc1)c1ccn2c(-c3ccccc3)ncc2c1` (stereo not shown) [Example 9], in test [1], the “AP-1 Max % inh” value amounted to 67.35% and the EC50 was determined as 10.1 nM.

For `CC(C)(C(=O)Nc1nccs1)C(c1ccccc1)c1ccc2c(Br)ncn2c1` (stereo not shown) [Example 6, 3-(1-BromoH-imidazo[1,5-a]pyridin-6-yl)-2,2-dimethyl-3-phenyl-N-(thiazol-2-yl)propanamide], in test [2], the Ki is 30.2 nM.

In the case of `CC(C)(C(=O)Nc1nccs1)C(c1ccccc1)c1ccc2cncn2c1` (stereo not shown) [Example 4, 3-(H-Imidazo[1,5-a]pyridin-6-yl)-2,2-dimethyl-3-phenyl-N-(thiazol-2-yl)propanamide], the Ki in test [2] worked out at 13 nM.

As to `CC(C)(C(=O)Nc1nncs1)C(c1ccccc1)c1ccc2c(-c3cccc(C#N)c3)ncn2c1` (stereo not shown) [Example 15], the Ki in test [2] worked out at 22.6 nM.

Take `CC(C)(C(=O)Nc1nccs1)C(c1ccccc1)c1ccc2nncn2c1` (stereo not shown) [Example 8, 3-([1,2,4]-Triazolo[4,3-a]pyridin-6-yl)-2,2-dimethyl-3-phenyl-N-(thiazol-2-yl)propanamide]: in test [2], the Ki came out at 169 nM.

Take `CC(C)(C(=O)Nc1nncs1)C(c1ccccc1)c1ccc2c(-c3ccc(F)cc3F)ncn2c1` (stereo not shown) [Example 19]: in test [1], the “AP-1 Max % inh” value came to 45.65% and the EC50 was found to be 16 nM.

In the case of `CC(C)(C(=O)Nc1nccs1)C(c1ccccc1)c1ccc2c(-c3ccc(F)cc3F)ncn2c1` (stereo not shown) [Example 18], in test [1], the “AP-1 Max % inh” value came to 55.81% and the EC50 is 13 nM.

On to `CC(C)(C(=O)Nc1nccs1)C(c1ccccc1)c1ccc2c(-c3ccc(F)c(Cl)c3)ncn2c1` (stereo not shown) [Example 20], for which, in test [2], the Ki turned out to be 65.9 nM.

`CC(C)(C(=O)Nc1nncs1)C(c1ccccc1)c1ccc2nncn2c1` (stereo not shown) [Example 24]: in test [2], the Ki came out at 327 nM.

Consider `CCOC(=O)NCC(C)(C)C(c1ccccc1)c1ccn2c(-c3ccccc3)ncc2c1` (stereo not shown) [Example 3, Ethyl 2,2-dimethyl-3-phenyl-3-(3-phenylH-imidazo[1,5-a]pyridin-7-yl)propylcarbamate], for which the Ki in test [2] stood at 27.4 nM.

With `CC(C)(C(=O)Nc1nncs1)C(c1ccccc1)c1ccn2c(-c3ccccc3)ncc2c1` (stereo not shown) [Example 1, 2,2-Dimethyl-3-phenyl-3-(3-phenylH-imidazo[1,5-a]pyridin-7-yl)-N-(1,3,4-thiadiazol-2-yl)propanamide], in test [1], the “AP-1 Max % inh” value worked out at 63.58% and the EC50 is 112 nM.

Turning to `CC(C)(C(=O)NC1CC1)C(c1ccccc1)c1ccn2c(-c3ccccc3)ncc2c1` (stereo not shown) [Example 10], in test [2], the inhibition constant Ki came to 7.3 nM.

In the case of `CC(C)(C(=O)Nc1nncs1)C(c1ccccc1)c1ccn2cncc2c1` (stereo not shown) [Example 11], the inhibition constant Ki in test [2] is 27.1 nM.

Regarding `CC(C)(C(=O)Nc1nncs1)C(c1ccccc1)c1ccc2c(-c3cccc(CO)c3)ncn2c1` (stereo not shown) [Example 22], the inhibition constant (Ki) in test [2] is 12.2 nM.

As to `Cc1nnc2ccc(C(c3ccccc3)C(C)(C)C(=O)Nc3nncs3)cn12` (stereo not shown) [Example 26], in test [2], the Ki was 5450 nM.

On to `CC(C)(CNC(=O)C(F)(F)F)C(c1ccccc1)c1ccn2c(-c3ccccc3)ncc2c1` (stereo not shown) [Example 2, N-(2,2-Dimethyl-3-phenyl-3-(3-phenylH-imidazo[1,5-a]pyridin-7-yl)propyl)-2,2,2-trifluoroacetamide], for which, in test [2], the inhibitory constant (Ki) was 16.5 nM.
